According to patent US20240398699A1 (COSMO TECHNOLOGIES LTD., priority 2017, published 2024):
Values after ≈ are worked out from the molar mass of the structure shown. Like-named read-outs stand apart in the source and are kept apart here. One block for each compound: values may come before it.

Key:
human PXR = target: T1, human PXR (Homo sapiens, UniProt O75469); assay: PXR nuclear receptor luciferase reporter assay (Indigo Biosciences), agonist mode; format: cell-based; conditions: for EC50: 3 independent experiments, read-out: Agonism of PXR transcriptional activity expressed as EC50 Molar (95% CI range)
T1 construct: host or cells: proprietary human cells engineered to express the hybrid receptor
T1 sequence (O75469 146-433 limits assumed): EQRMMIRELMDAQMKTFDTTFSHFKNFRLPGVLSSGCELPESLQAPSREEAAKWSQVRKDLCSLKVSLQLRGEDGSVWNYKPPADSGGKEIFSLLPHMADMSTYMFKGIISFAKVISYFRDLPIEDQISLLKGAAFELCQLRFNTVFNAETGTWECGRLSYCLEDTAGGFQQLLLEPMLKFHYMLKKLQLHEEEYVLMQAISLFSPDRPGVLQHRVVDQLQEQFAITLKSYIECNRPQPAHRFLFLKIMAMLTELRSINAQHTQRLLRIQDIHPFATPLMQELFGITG
Source text: This assay product from Indigo Biosciences (Pennsylvania, USA) utilizes cells that express a hybrid form of human PXR. The N-terminal sequence encoding the PXR DNA binding domain (DBD) was substituted with that of the yeast GAL4-DBD. The native PXR ligand binding domain (LBD) and other C-terminal domains remain intact and functional. Ligand interaction activates the receptor, causing it to bind to the GAL4 DNA binding sequence, which is functionally linked to a resident luciferase reporter gene. Thus, quantifying changes in luciferase activity in the treated reporter cells provides a sensitive surrogate measure of the changes in PXR activity. The principle application of this reporter assay system is in the screening of test samples to quantify any functional activity, either agonist or antagonist, that they may exert against human PXR. […] The p value was calculated using Prism parametric, paired t test analysis.

[1] = tested on: NFkB transcription factor; assay: NFkB reporter assay (Indigo Biosciences), antagonist mode, TNFα stimulated human kidney epithelial cells; format: cell-based; conditions: for IC50: Homo sapiens, Epithelial cell, 30 ng/mL TNFα, 24 hours, 2 independent experiments, read-out: Antagonism of NFkB activity IC50 Molar (95% CI range)
Protocol: The NFkB nuclear receptor assay system from Indigo Biosciences utilizes human kidney epithelial cells transiently transfected with an NF-kB reporter. The NFkB biologic activity measured as transcriptional activity from these reporter cells demands the same orchestration of all intracellular molecular interactions and events that can be expected to occur in vivo. Cells were treated under antagonist mode in the presence of 30 ng/mL TNFα to stimulate the NFkB inflammatory cascade. […] After 24 hours, luminescence which is proportional to NFkB transcriptional activity was quantitated. […] The p value was calculated using Prism parametric, paired t test analysis.

[2] = tested on: NFκB transcriptional activity; assay: NFκB luciferase reporter cell line stimulated with PMA, TNFα or LPS; format: cell-based; conditions: for IC50: 24 hr incubation
Protocol: To establish that NFκB inhibition occurs upon rifamycin-induced PXR activation, a reporter cell line expressing full length NFκB and harboring luciferase reporter gene functionally linked to upstream NFκB genetic response elements, was stimulated with either PMA, TNFα or LPS to induce NFκB. Rifamycin or rifaximin were dose-titrated onto these stimulated cells. After 24 hr incubation, luminescence correlating to NFκB transcriptional activity was quantified.

[3] = tested on: Methanobrevibacter smithii (DSMZ 11975); assay: MIC (Minimum Inhibiting Concentration) on bacterial strain; format: cell-based
[4] = tested on: IL1β-induced synthesis of IL-8 in colonic epithelial cells; assay: IL1β-induced IL-8 synthesis in colonic epithelial cells; format: cell-based
Source text: PMA or diacyl glycerol-activated PKC is important for T cell receptor or IgE-induced NFκB that occurs in immune cells, like T cells and mast cells, respectively. On the other hand, TNF or LPS-induced NFκB that occurs in colonic epithelial cells requires other signaling factors (TRAFs, TNFR-associated factors). Most importantly, for its relevance in IBS or IBD, NFκB biologic function was confirmed in colonic epithelial cells. […] These cell-dependent requirements for inducing inflammation imply that by acting on various target cells, rifamycin's anti-inflammatory potential is broad because dysregulated immune and epithelial cell interactions contribute to the pathogenesis of several GI disorders.

[5] = Safety and tolerability in healthy volunteers; format: in vivo, human
[6] = PMA stimulus, read-out: IC50, antagonism of PMA-induced NFκB activity
[7] = up to the highest concentration tested

Structure (SMILES): NC[C@@H]1O[C@H](O[C@H]2[C@@H](O)[C@H](O[C@@H]3[C@@H](O)[C@H](N)C[C@H](N)[C@H]3O[C@H]3O[C@H](CN)[C@@H](O)[C@H](O)[C@H]3N)O[C@@H]2CO)[C@H](N)[C@@H](O)[C@@H]1O [Neomycin]
MIC [3]: >100 µg/mL

Structure (SMILES): Cc1ncc([N+](=O)[O-])n1CCO [Metronidazole]
MIC ([3]; DSMZ11975, read-out: MIC): 25 µg/mL (≈ 146 µM)

Now from value to compound, other results behind:

EC50 (human PXR): 1800 nM | times less potent than rifamycin SV at 0.3 μM (PXR) (human PXR; rifaximin at 30 μM): 2.5 times | IC50 [1]: 83000 nM | IC50 [2, 6]: 93.9 nM | MIC ([3]; DSMZ11975, read-out: MIC): 25 µg/mL (≈ 31.8 µM)
Structure (SMILES): CO[C@H]1/C=C/O[C@@]2(C)Oc3c(C)c(O)c4c(O)c(c5c(nc6cc(C)ccn65)c4c3C2=O)NC(=O)/C(C)=C\C=C\[C@H](C)[C@H](O)[C@@H](C)[C@@H](O)[C@@H](C)[C@H](OC(C)=O)[C@@H]1C [Rifaximin]
inhibition of LPS-induced NFκB activity [2, 7]: did not inhibit | inhibition of TNFα-induced NFκB activity [2, 7]: did not inhibit

MIC [3]: <1 µg/mL
Structure (SMILES): CO[C@H]1/C=C/O[C@@]2(C)Oc3c(C)c([O-])c4c(O)c(cc(O)c4c3C2=O)NC(=O)/C(C)=C\C=C\[C@H](C)[C@H](O)[C@@H](C)[C@@H](O)[C@@H](C)[C@H](OC(C)=O)[C@@H]1C.[Na+] [Rifamycin SV sodium]

EC50 (human PXR): 6.08 nM | times more potent than rifaximin in stimulating PXR transcriptional activity (human PXR; from rifaximin at 30 μM vs rifamycin SV at 0.3 μM): 250 times | times more potent than rifampicin (PXR) (human PXR; vs rifampicin, positive control): 180 times | times more potent than rifaximin at stimulating PXR transcriptional activity (human PXR; vs rifaximin): 200-440 times | IC50 [1]: 23 nM | IC50 ([2]; LPS stimulus, read-out: IC50, antagonism of LPS-induced NFκB activity): 3490 nM | IC50 [2, 6]: 15.6 nM | IC50 ([2]; TNFα stimulus, read-out: IC50, antagonism of TNFα-induced NFκB activity): 14800 nM
Structure (SMILES): CO[C@H]1/C=C/O[C@@]2(C)Oc3c(C)c(O)c4c(O)c(cc(O)c4c3C2=O)NC(=O)/C(C)=C\C=C\[C@H](C)[C@H](O)[C@@H](C)[C@@H](O)[C@@H](C)[C@H](OC(C)=O)[C@@H]1C [Rifamycin SV, (2S,12Z,14E,16S,17S,18R,19R,20R,21S,22R,23S,24E)-21-(acetyloxy)-6,9,17,19-tetrahydroxy-23-methoxy-2,4,12,16,18,20,22-heptamethyl-1,11-dioxo-1,2-dihydro-2,7-(epoxypentadeca[1,11,13]trienimino)naphtho[2,1-b]furan-5-ol]
times more potent than rifaximin at inhibiting NFkB transcriptional activity ([1]; vs rifaximin): 4000 times | times higher potency than rifaximin, PMA-induced NFκB activity ([2]; PMA stimulus): 6 times | IL1β-induced synthesis of IL-8 [4]: significantly inhibited | change in vital signs, BW, ECGs or laboratory parameters ([5]; after treatment, 600 mg t.i.d., 14 days): No significant change | change in liver or kidney functions ([5]; during the multiple doses treatment): No significant change | discontinuation due to AEs ([5]; tablets of Example 1, 600 mg t.i.d., 14 days): no subject discontinued the study due to AEs | severe AEs ([5]; tablets of Example 1, 600 mg t.i.d., 14 days, 18 healthy subjects): No severe AEs were reported
